According to patent publication US20250134887A1, “METHODS OF TREATING PROSTATE CANCER” (AstraZeneca AB, priority 2022, published 2025):

Legend:
[1] = tested on: patients with progressive mCRPC who had not received chemotherapy; settings: COU-AA-302; cited from earlier work
patients with mCRPC = test: PROpel phase III trial: safety, adverse events (CTCAE v.4.03); assay type: in vivo, human
Protocol: Trial design and interventions. This was a double-blind, placebo-controlled, phase Ill trial. Eligible patients were randomized (1:1) to treatment with abiraterone acetate (1000 mg once daily) in combination with either olaparib (300 mg twice daily) or placebo. All patients received prednisone or prednisolone (5 mg twice daily) as per the abiraterone acetate label requirement. Randomization was stratified by distant metastasis type (bone only/visceral/other) at baseline and by docetaxel treatment at the mHSPC stage of disease (yes or no). Study treatment continued until objective imaging-based progressive disease assessed by investigator (using Response Evaluation Criteria in Solid Tumors [RECIST 1.1] for soft tissue lesions and Prostate Cancer Working Group-3 [PCWG-3] criteria for bone lesions), unacceptable toxicity, or withdrawal of consent. Following objective disease progression, further treatment options were at the discretion of the investigator. Patients could continue study treatment if the investigator believed, that the patient could continue to receive clinical benefit, was not experiencing serious toxicity and there was no available better alternative treatment. Crossover from placebo to receive olaparib in combination with abiraterone acetate was not allowed.
Safety was assessed through reporting of adverse events and serious adverse events (according to Common Terminology Criteria for Adverse Events v.4.03) based on physical examination findings, vital signs, ECG findings and laboratory test results.
Statistical analysis. Efficacy was analyzed for the intention-to-treat population and safety was analyzed for all patients who received any amount of abiraterone acetate, olaparib, or placebo. Patients who received at least one dose of olaparib were included in the abiraterone acetate and olaparib arm.

[2] = male, human, in vivo, 15.7 months

CC(=O)O[C@H]1CC[C@@]2(C)C(=CC[C@@H]3[C@@H]2CC[C@]2(C)C(c4cccnc4)=CC[C@@H]32)C1 [abiraterone acetate and placebo, (3β)-17-(3-pyridinyl) androsta-5,16-dien-3-yl acetate]
median radiographic progression-free survival [1]: 16.5 months
Anemia, % of patients (patients with mCRPC; All Grades): (16.4) %
Anemia, number of patients (patients with mCRPC; All Grades): 65
Any adverse event, % of patients (patients with mCRPC; All Grades): (94.9) %
Any adverse event, number of patients (patients with mCRPC; All Grades): 376
Arthralgia, % of patients (patients with mCRPC; All Grades): (17.7) %
Arthralgia, number of patients (patients with mCRPC; All Grades): 70
Back pain, % of patients (patients with mCRPC; All Grades): (18.4) %
Back pain, number of patients (patients with mCRPC; All Grades): 73
Cardiac failure adverse events, % of patients (patients with mCRPC; All Grades): (1.3) %
Cardiac failure adverse events, number of patients (patients with mCRPC; All Grades): 5
Constipation, % of patients (patients with mCRPC; All Grades): (13.9) %
Constipation, number of patients (patients with mCRPC; All Grades): 55
Decreased appetite, % of patients (patients with mCRPC; All Grades): (5.8) %
Decreased appetite, number of patients (patients with mCRPC; All Grades): 23
Diarrhea, % of patients (patients with mCRPC; All Grades): (9.3) %
Diarrhea, number of patients (patients with mCRPC; All Grades): 37
Dizziness, % of patients (patients with mCRPC; All Grades): (6.3) %
Dizziness, number of patients (patients with mCRPC; All Grades): 25
Embolic and thrombotic arterial adverse events, % of patients (patients with mCRPC; All Grades): (2.5) %
Embolic and thrombotic arterial adverse events, number of patients (patients with mCRPC; All Grades): 10
Fatigue or asthenia, % of patients (patients with mCRPC; All Grades): (28.3) %
Fatigue or asthenia, number of patients (patients with mCRPC; All Grades): 112
Hypertension, % of patients (patients with mCRPC; All Grades): (16.4) %
Hypertension, number of patients (patients with mCRPC; All Grades): 65
Nausea, % of patients (patients with mCRPC; All Grades): (12.6) %
Nausea, number of patients (patients with mCRPC; All Grades): 50
Peripheral edema, % of patients (patients with mCRPC; All Grades): (11.4) %
Peripheral edema, number of patients (patients with mCRPC; All Grades): 45
Urinary tract infection, % of patients (patients with mCRPC; All Grades): (7.8) %
Urinary tract infection, number of patients (patients with mCRPC; All Grades): 31
Vomiting, % of patients (patients with mCRPC; All Grades): (9.1) %
Vomiting, number of patients (patients with mCRPC; All Grades): 36
Anemia, % of patients (patients with mCRPC; Grade ≥ 3): 3.3%
Anemia, number of patients (patients with mCRPC; Grade ≥ 3): 13
Any adverse event, % of patients (patients with mCRPC; Grade ≥ 3): (38.4) %
Any adverse event, number of patients (patients with mCRPC; Grade ≥ 3): 152
Arthralgia, % of patients (patients with mCRPC; Grade ≥ 3): (0.5) %
Arthralgia, number of patients (patients with mCRPC; Grade ≥ 3): 2
Back pain, % of patients (patients with mCRPC; Grade ≥ 3): (1.0) %
Back pain, number of patients (patients with mCRPC; Grade ≥ 3): 4
COVID-19, % of patients (patients with mCRPC; Grade ≥ 3): 2.0%
COVID-19, cases (patients with mCRPC; Grade ≥ 3): 8
Constipation, % of patients (patients with mCRPC; Grade ≥ 3): (0.3) %
Constipation, number of patients (patients with mCRPC; Grade ≥ 3): 1
Decreased appetite, number of patients (patients with mCRPC; Grade ≥ 3): 0
Diarrhea, % of patients (patients with mCRPC; Grade ≥ 3): (0.3) %
Diarrhea, number of patients (patients with mCRPC; Grade ≥ 3): 1
Dizziness, number of patients (patients with mCRPC; Grade ≥ 3): 0
Fatigue or asthenia, % of patients (patients with mCRPC; Grade ≥ 3): (1.5) %
Fatigue or asthenia, number of patients (patients with mCRPC; Grade ≥ 3): 6
Hypertension, % of patients (patients with mCRPC; Grade ≥ 3): (3.3) %
Hypertension, number of patients (patients with mCRPC; Grade ≥ 3): 13
Nausea, % of patients (patients with mCRPC; Grade ≥ 3): (0.3) %
Nausea, number of patients (patients with mCRPC; Grade ≥ 3): 1
Peripheral edema, % of patients (patients with mCRPC; Grade ≥ 3): (0.3) %
Peripheral edema, number of patients (patients with mCRPC; Grade ≥ 3): 1
Urinary tract infection, % of patients (patients with mCRPC; Grade ≥ 3): (1.0) %
Urinary tract infection, number of patients (patients with mCRPC; Grade ≥ 3): 4
Vomiting, % of patients (patients with mCRPC; Grade ≥ 3): (0.3) %
Vomiting, number of patients (patients with mCRPC; Grade ≥ 3): 1
Anemia, % of patients (patients with mCRPC; Grade ≥ 3, listed as Abiraterone and Placebo): (3.3) %
COVID-19, % of patients (patients with mCRPC; all grades): 4.5%
COVID-19, cases (patients with mCRPC; all grades): 18
Any serious adverse event, % of patients (patients with mCRPC; human, in vivo, 15.7 months): (27.0) %
Any serious adverse event, number of patients (patients with mCRPC; human, in vivo, 15.7 months): 107
Death due to an adverse event, % of patients (patients with mCRPC; human, in vivo, 15.7 months): (4.3) %
Death due to an adverse event, number of patients (patients with mCRPC; human, in vivo, 15.7 months): 17
Discontinuation of abiraterone acetate due to an adverse event, % of patients (patients with mCRPC; human, in vivo, 15.7 months): (8.8) %
Discontinuation of abiraterone acetate due to an adverse event, number of patients (patients with mCRPC; human, in vivo, 15.7 months): 35
Discontinuation of olaparib/placebo due to an adverse event, % of patients (patients with mCRPC; human, in vivo, 15.7 months): (7.8) %
Discontinuation of olaparib/placebo due to an adverse event, number of patients (patients with mCRPC; human, in vivo, 15.7 months): 31
Dose reduction of abiraterone acetate due to an adverse event, % of patients (patients with mCRPC; human, in vivo, 15.7 months): (4.3) %
Dose reduction of abiraterone acetate due to an adverse event, number of patients (patients with mCRPC; human, in vivo, 15.7 months): 17
Dose reduction of olaparib/placebo due to an adverse event, % of patients (patients with mCRPC; human, in vivo, 15.7 months): (5.6) %
Dose reduction of olaparib/placebo due to an adverse event, number of patients (patients with mCRPC; human, in vivo, 15.7 months): 22
Interruption of abiraterone acetate because of an adverse event, % of patients (patients with mCRPC; human, in vivo, 15.7 months): (22.0) %
Interruption of abiraterone acetate because of an adverse event, number of patients (patients with mCRPC; human, in vivo, 15.7 months): 87
Interruption of olaparib/placebo because of an adverse event, % of patients (patients with mCRPC; human, in vivo, 15.7 months): (25.3) %
Interruption of olaparib/placebo because of an adverse event, number of patients (patients with mCRPC; human, in vivo, 15.7 months): 100
Deep-vein thrombosis, patients (patients with mCRPC; in vivo): three
pulmonary embolism, cases (patients with mCRPC; in vivo): seven
Deep-vein thrombosis, % of patients (patients with mCRPC; [2]): 0.8%
new primary cancers, % of patients (patients with mCRPC; [2]): 2.5%
new primary cancers, reports (patients with mCRPC; [2]): 10
pulmonary embolism, % of patients (patients with mCRPC; [2]): 1.8%
